Test results: PubChem BioAssay AID248 (DTP/NCI, 2004)
Several values for one entry are separate records, joined by “and”; a condition that tells them apart may be missing. Equal entries are not always repeated. Inconclusive results and toxic doses are left out.

Tested on: L1210 leukemia ip in BDF1 mice, survival T/C
Assay: NCI In Vivo Anticancer Drug Screen. Data for tumor model L1210 Leukemia (intraperitoneal) in B6D2F1 (BDF1) mice
Details: endpoint: mean survival time, higher = longer survival
Procedure, shortened: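 Each compound was tested against a transplantable tumor grown in mice. The endpoint was survival, with treated animals benchmarked against vehicle controls as a simple ratio.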

[1] = dose: 100.0 mg/kg/injection, schedule: Q01DX009 (ip), vehicle: Klucel (hydroxypropylcellulose) (HPC)
[2] = dose: 200.0 mg/kg/injection, schedule: Q01DX009 (ip), vehicle: Klucel (hydroxypropylcellulose) (HPC)
[3] = dose: 400.0 mg/kg/injection, schedule: Q01DX009 (ip), vehicle: Klucel (hydroxypropylcellulose) (HPC)
[4] = dose: 100.0 mg/kg/injection, schedule: Q04DX003 (ip), vehicle: Klucel (hydroxypropylcellulose) (HPC)
[5] = dose: 200.0 mg/kg/injection, schedule: Q04DX003 (ip), vehicle: Klucel (hydroxypropylcellulose) (HPC)
[6] = dose: 400.0 mg/kg/injection, schedule: Q04DX003 (ip), vehicle: Klucel (hydroxypropylcellulose) (HPC)
[7] = dose: 100.0 mg/kg/injection, schedule: Q01DX001 (ip), vehicle: carboxymethylcellulose (CMC)
[8] = dose: 200.0 mg/kg/injection, schedule: Q01DX001 (ip), vehicle: carboxymethylcellulose (CMC)
[9] = dose: 50.0 mg/kg/injection, schedule: Q01DX009 (ip), vehicle: Klucel (hydroxypropylcellulose) (HPC)

CC1CCC2C(C)C3C(CC4C5CC=C6CC(OC7OC(CO)C(O)C(OC8OC(CO)C(O)C(O)C8O)C7OC7OC(C)C(O)C(O)C7O)CCC6(C)C5CCC43C)N2C1 (configuration not stated)
T/C (dose: 12.5 mg/kg/injection, schedule: Q01DX015 (sc), vehicle: steriod suspending solution): 101 % of control
T/C (dose: 25.0 mg/kg/injection, schedule: Q01DX015 (sc), vehicle: steriod suspending solution): 98 % of control
T/C (dose: 50.0 mg/kg/injection, schedule: Q01DX015 (sc), vehicle: steriod suspending solution): 95 % of control
T/C (dose: 100.0 mg/kg/injection, schedule: Q01DX001 (sc), vehicle: steriod suspending solution): 100 % of control
T/C (dose: 100.0 mg/kg/injection, schedule: Q01DX015 (sc), vehicle: steriod suspending solution): 101 % of control
T/C (dose: 200.0 mg/kg/injection, schedule: Q01DX001 (sc), vehicle: steriod suspending solution): 105 % of control
T/C (dose: 400.0 mg/kg/injection, schedule: Q01DX001 (sc), vehicle: steriod suspending solution): 103 % of control

CCN(CC)CCCOC(=O)C(c1ccccc1)C1CCCCC1 (configuration not stated)
T/C (dose: 6.25 mg/kg/injection, schedule: Q01DX009 (ip), vehicle: saline): 97 % of control
T/C (dose: 6.25 mg/kg/injection, schedule: Q04DX003 (ip), vehicle: saline): 100 % of control
T/C (dose: 12.5 mg/kg/injection, schedule: Q01DX009 (ip), vehicle: saline): 94 % of control
T/C (dose: 12.5 mg/kg/injection, schedule: Q04DX003 (ip), vehicle: saline): 102 % of control
T/C (dose: 25.0 mg/kg/injection, schedule: Q01DX009 (ip), vehicle: saline): 94 % of control
T/C (dose: 25.0 mg/kg/injection, schedule: Q04DX003 (ip), vehicle: saline): 102 % of control

CCCCCCCCCCCC(=O)Nc1ccc(N(C)C(C)=O)cc1
T/C [1]: 90 % of control
T/C (dose: 100.0 mg/kg/injection, schedule: Q04DX002 (ip), vehicle: Klucel (hydroxypropylcellulose) (HPC)): 89 % of control
T/C [2]: 95 % of control
T/C (dose: 200.0 mg/kg/injection, schedule: Q04DX002 (ip), vehicle: Klucel (hydroxypropylcellulose) (HPC)): 100 % of control
T/C [3]: 97 % of control
T/C (dose: 400.0 mg/kg/injection, schedule: Q04DX002 (ip), vehicle: Klucel (hydroxypropylcellulose) (HPC)): 100 % of control

Nc1cc(Nc2ccc(S(N)(=O)=O)cc2)nc(N)n1
T/C [4]: 93 % of control
T/C [5]: 97 % of control
T/C [6]: 93 % of control

c1ccc(CSc2ncnc3nc[nH]c23)nc1
T/C (dose: 50.0 mg/kg/injection, schedule: Q04DX003 (ip), vehicle: saline sonified): 116 % of control
T/C (dose: 100.0 mg/kg/injection, schedule: Q04DX003 (ip), vehicle: saline sonified): 113 % of control

CNC(=O)Nc1ccc(C)cc1
T/C [7]: 108 % of control
T/C [8]: 111 % of control
T/C (dose: 400.0 mg/kg/injection, schedule: Q01DX001 (ip), vehicle: carboxymethylcellulose (CMC)): 111 % of control

O=C(Nc1ccc(F)cc1)Nc1nccs1
T/C (dose: 100.0 mg/kg/injection, schedule: Q01DX001 (ip), vehicle: Klucel (hydroxypropylcellulose) (HPC)): 88 % of control
T/C [1]: 98 % of control and 102 % of control
T/C [4]: 102 % of control
T/C (dose: 200.0 mg/kg/injection, schedule: Q01DX001 (ip), vehicle: Klucel (hydroxypropylcellulose) (HPC)): 96 % of control
T/C [2]: 101 % of control and 117 % of control
T/C [5]: 111 % of control
T/C (dose: 400.0 mg/kg/injection, schedule: Q01DX001 (ip), vehicle: Klucel (hydroxypropylcellulose) (HPC)): 93 % of control
T/C [3]: 98 % of control
T/C [6]: 113 % of control

COc1cc2c(cc1OC)C(Cc1ccc(OC(=O)O)cc1)=NCC2
T/C [7]: 102 % of control
T/C [8]: 102 % of control

O=C(Nc1ccc(C2=NCCN2)cc1)c1ccc(C(=O)Nc2ccc(C3=NCCN3)cc2)c([N+](=O)[O-])c1
T/C (dose: 1.0 mg/kg/injection, schedule: Q#A X Z (ip), vehicle: saline): 103 % of control
T/C (dose: 2.0 mg/kg/injection, schedule: Q01DX Z (ip), vehicle: saline): 112 % of control
T/C (dose: 2.5 mg/kg/injection, schedule: Q## X000 (iv), vehicle: other): 97 % of control
T/C (dose: 3.6 mg/kg/injection, schedule: Q01DX Z (ip), vehicle: methylcellulose (MC)): 163 % of control
T/C (dose: 4.0 mg/kg/injection, schedule: Q01DX Z (ip), vehicle: saline): 116 % of control
T/C (dose: 4.0 mg/kg/injection, schedule: Q#A X Z (ip), vehicle: saline): 184 % of control
T/C (dose: 5.0 mg/kg/injection, schedule: Q## X000 (iv), vehicle: other): 96 % of control
T/C (dose: 5.4 mg/kg/injection, schedule: Q01DX Z (ip), vehicle: methylcellulose (MC)): 195 % of control
T/C (dose: 6.0 mg/kg/injection, schedule: Q01DX004 (im), vehicle: olive oil, sesame oil, peanut oil): 97 % of control
T/C (dose: 6.0 mg/kg/injection, schedule: Q03DX Z (ip), vehicle: saline): 115 % of control
T/C (dose: 8.0 mg/kg/injection, schedule: Q01DX004 (im), vehicle: olive oil, sesame oil, peanut oil): 98 % of control
T/C (dose: 8.0 mg/kg/injection, schedule: Q01DX Z (ip), vehicle: methylcellulose (MC)): 246 % of control
T/C (dose: 8.0 mg/kg/injection, schedule: Q01DX Z (ip), vehicle: saline): 204 % of control
T/C (dose: 10.0 mg/kg/injection, schedule: Q## X000 (iv), vehicle: other): 120 % of control
T/C (dose: 12.0 mg/kg/injection, schedule: Q01DX004 (im), vehicle: olive oil, sesame oil, peanut oil): 101 % of control
T/C (dose: 12.0 mg/kg/injection, schedule: Q01DX Z (ip), vehicle: methylcellulose (MC)): 204 % of control
T/C (dose: 12.0 mg/kg/injection, schedule: Q03DX Z (ip), vehicle: saline): 123 % of control
T/C (dose: 16.0 mg/kg/injection, schedule: Q01DX009 (ip), vehicle: saline): 188 % of control and 198 % of control
T/C (dose: 18.0 mg/kg/injection, schedule: Q01DX004 (im), vehicle: olive oil, sesame oil, peanut oil): 104 % of control
T/C (dose: 24.0 mg/kg/injection, schedule: Q03DX Z (ip), vehicle: saline): 188 % of control
T/C (dose: 28.0 mg/kg/injection, schedule: Q07DX Z (ip), vehicle: saline): 113 % of control
T/C (dose: 32.0 mg/kg/injection, schedule: Q01DX009 (ip), vehicle: saline): 100 % of control and 103 % of control
T/C (dose: 32.0 mg/kg/injection, schedule: Q01DX Z (ip), vehicle: saline): 86 % of control
T/C (dose: 48.0 mg/kg/injection, schedule: Q03DX Z (ip), vehicle: saline): 172 % of control
T/C (dose: 64.0 mg/kg/injection, schedule: Q01DX Z (sc), vehicle: steriod suspending solution): 159 % of control
T/C (dose: 96.0 mg/kg/injection, schedule: Q03DX Z (ip), vehicle: saline): 100 % of control
T/C (dose: 125.0 mg/kg/injection, schedule: Q01DX Z (sc), vehicle: steriod suspending solution): 122 % of control
T/C (dose: 240.0 mg/kg/injection, schedule: Q01DX Z (oral), vehicle: saline): 101 % of control

Cc1sc([N+](=O)[O-])cc1[N+](=O)[O-]
T/C [9]: 103 % of control
T/C [1]: 92 % of control
T/C [4]: 97 % of control
T/C [5]: 96 % of control

CCc1ccc(NC(=S)NC(=O)C(C)Oc2ccccc2)cc1 (configuration not stated)
T/C (dose: 100.0 mg/kg/injection, schedule: Q04DX002 (ip), vehicle: saline): 110 % of control
T/C (dose: 200.0 mg/kg/injection, schedule: Q04DX002 (ip), vehicle: saline): 103 % of control
T/C (dose: 400.0 mg/kg/injection, schedule: Q04DX002 (ip), vehicle: saline): 90 % of control

Nc1ncnc2c1ncn2C1C=COC(CO)C1O (configuration not stated)
T/C (dose: 100.0 mg/kg/injection, schedule: Q01DX005 (ip), vehicle: saline): 100 % of control
T/C (dose: 200.0 mg/kg/injection, schedule: Q01DX005 (ip), vehicle: saline): 97 % of control

COc1ccc([N+](=O)[O-])cc1NC(=O)Nc1ccc(Nc2ccccc2)cc1
T/C [9]: 97 % of control
T/C [1]: 94 % of control
T/C [2]: 90 % of control

NC(=S)NN=C1CCN(Cc2ccccc2)CC1
T/C (dose: 50.0 mg/kg/injection, schedule: Q01DX001 (ip), vehicle: saline): 95 % of control
T/C (dose: 100.0 mg/kg/injection, schedule: Q01DX001 (ip), vehicle: saline): 101 % of control

CCC(COC(=O)c1ccc(N)cc1)NC(CC(C)C)CC(C)C (configuration not stated)
T/C (dose: 75.0 mg/kg/injection, schedule: Q01DX001 (ip), vehicle: carboxymethylcellulose (CMC)): 89 % of control
T/C (dose: 300.0 mg/kg/injection, schedule: Q01DX001 (ip), vehicle: carboxymethylcellulose (CMC)): 91 % of control
